{"source": "patent US20200108043A1", "about": "“COMPOUNDS AND COMPOSITIONS FOR EXTENDING LIFESPAN OF A SUBJECT” (YALE UNIVERSITY, priority 2017, published 2020)", "key": {"S. cerevisiae": {"test_system": "S. cerevisiae", "type": "cell-based", "description": "To obtain the single-cell level data for the age and generation-durations of replicatively aging mother cells, data reported in Liu, P., et al., Cell Rep. 634-644 (2015) was re-analyzed. The data was collected in the same media condition (CSM 2% glucose) as reported elsewhere herein. Cells were grown for ˜24 hours in CSM 2% glucose prior to loading to the microfluidic device. Once cells were loaded, media was swapped to provide CSM 2% glucose control media (untreated), media containing DMSO as a vehicle control (American Bio AB00435), media containing 10 μM terreic acid (Sigma SML0480), media containing 10 μM mycophenolic acid (Sigma M5255), or media containing another compound at the indicated concentration. An automated microscope was used to track […], and replicative lifespan was later determined by counting the number of daughters produced before death. In the case of compound validation, only newborn cells were included in the lifespan experiment. To compare the replicative lifespan of labeled and unlabeled cells, only cells that were present within the traps at the start of the experiment were included. For these experiments, cells were loaded to the microfluidic device at an increased rate of 100 μL/min to increase the number of trapped mother cells. Green fluorescent images were also taken at the start of the experiment to confirm that the cells were visibly labeled.\nDifferences in lifespan characteristics were assessed through Log-Rank test using MATLAB with a cut-off value of P=0.05. The script for Log-Rank test was downloaded from MATLAB. Differences in proteasome activity were assessed using the unpaired, two-tailed, parametric t-test function of the GraphPad Prism software.\nThe Longevity Placement Test (LPT) was designed as a mutually exclusive, collectively exhaustive test to determine the relationship of a longevity intervention to a known genetic regulator of lifespan. For a given intervention that extends lifespan, any of three possible relationships may exist relative to a known genetic regulator of lifespan. (1) The intervention may act to extend lifespan independently from the known regulator. (2) The […] may act downstream from the known regulator, converging on a single component of the known regulator's lifespan pathway. (3) The intervention may act upstream from or upon the known regulator, ultimately modulating lifespan through the genetic regulator.\nIn Step 1 of the LPT, the longevity intervention is applied to a strain in which a genetic regulator of lifespan is deleted. In the event that lifespan extension from the longevity intervention is observed in this background, only possibilities (1) and (2) above remain valid (FIG. 7B). If no lifespan extension is observed, then possibilities (2) and (3) remain valid. Possibility (2) cannot be ruled out in this step, since non-saturating action by the genetic regulator could leave room for lifespan extension by the longevity intervention, while saturating action would preclude it.\nIn Step 2 of the LPT, an epistatic agent, which prevents lifespan extension from the longevity agent, is applied to a strain in which some upstream member of the genetic regulator's lifespan pathway has been modified to extend lifespan. This step differentiates possibility (2) from the remaining possibility after Step 1. In the event that lifespan extension from the genetic regulator's pathway is suppressed by the epistatic agent, this determines that possibility (2) is correct. In the event that no epistasis is observed, the remaining possibility, (1) or (3), is correct (FIG. 7C)."}, "proteasome": {"target": "T1, proteasome (Saccharomyces cerevisiae, UniProt P30656)", "T1 construct": "with 50 μg of total protein in 200 μL of lysis buffer; endogenous in cells; host or cells: S. cerevisiae BY4741 wild-type or ΔUBR2 cells, glass-bead lysate (total protein extract)", "assay": "Proteasome assay with fluorogenic substrate Suc-LLVY-AMC on yeast protein extracts", "type": "biochemical", "description": "For protein extraction, 50 mL of cells were grown for 18 hours to an OD600 of approximately 0.8, then transferred to a 50 mL conical tube and centrifuged at 4255×g for 5 minutes at room temperature. The supernatant was discarded, and the cells were re-suspended in 150 μL of cold lysis buffer (50 mM Tris-HCl, pH 7.5, 0.5 mM EDTA, 5 mM MgCl2, with complete ULTRA mini protease inhibitor tablets, EDTA free) and transferred to a 1.5 mL tube. A ¼ volume of 500-750 μm glass beads (Acros Organics 397641000) was added to each tube. For 10 rounds, the tubes were chilled in ice water for 1 minute, then vortexed at maximum speed for 30 seconds to physically rupture the cells, and returned to the ice water. Samples were then spun for 3 minutes at 2500×g and 4° C., and the supernatant was transferred to a fresh tube. The solution was further clarified by centrifugation at 8000×g for 10 minutes at 4° C., and the supernatant was transferred to a fresh tube. Protein concentration was measured using a Nanodrop measuring the absorbance of the sample at 280 nm.\nThe proteasome assay used was described in Kruegel, et al. PLoS Genet. 7, (2011). The assay was performed in a 96-well clear-bottom plate (Costar 3603) with 50 μg of total protein in 200 μL of lysis buffer. The fluorogenic proteasome substrate Suc-LLVY-AMC (Bachem 1-1395) was added to a final concentration of 100 μM. Fluorescence intensity with an excitation wavelength of 380 nm and an emission wavelength of 460 nm was recorded at 5-minute intervals using a Neo2 plate reader (BioTek) set to mix constantly and maintain 30° C. Negative control reactions were performed in the presence of 50 μM MG132 (Sigma 474787), a proteasome inhibitor."}, "Saccharomyces cerevisiae": {"test_system": "Saccharomyces cerevisiae", "assay": "High-Life (High throughput replicative Lifespan measurement) flow cytometry assay in MEP yeast", "type": "cell-based", "conditions": "10 μM, 24 hours in culture, 3-4 replicate wells, repeat of screen hits", "description": "Cells were labeled with NHS-fluorescein as described above, then diluted to 20 cells/μL in media. 80 μL/well was aliquoted to 384-well plates, which were covered with a breathable membrane and placed on a shaker platform in a humidified incubator. After 3 hours, the plates were removed from the incubator and each well was treated with 20 μL pre-warmed, 30° C. 5 μM β-estradiol in media. In the case of ibuprofen or compound-treated wells, the compound was diluted in this volume at a 5× concentration to achieve a final concentration of 10 μM, or 100 μM for ibuprofen. The plates were then returned to the incubator. At indicated times, one plate was removed from the incubator and placed on an autosampler cooled to 8° C. attached to a Stratedigm flow cytometer. The cytometer was set to automatically add and mix 20 μL of aqueous solution containing 60 μg/mL CF405M-WGA (Biotium 29028) and propidium iodide (Sigma P4864) prior to acquiring 80 μL of sample for each well.\nIn order to test the lifespan of model organisms on both a large-scale and with quick turn-around, a massively multiplexed method was developed to measure replicative lifespan in the short-lived model organisms Saccharomyces cerevisiae. The protocol uses green-fluorescent labeling to identify progenitor cells, red-fluorescent labeling to differentiate non-viable cells, and blue-fluorescent labeling of bud scars to determine replicative age (FIG. 1). Each parameter is measured using a flow cytometer.\nTo achieve high throughput, the measurement system was automated, and the assay was performed in 384-well plates. The assay was performed using an autosampler-equipped flow cytometer, in a volume of 100 μL. Growth of even a single cell and its progeny in such a small volume will result in nutrient starvation before the natural replicative lifespan is exhausted; therefore to circumvent this issue, High-Life experiments were performed in the background of the Mother Enrichment Program (MEP) (Lindstrom and Gottschling, Genetics. 2009 October; 183(2):413-22). MEP strains express a CRE recombinase fused to an estrogen-binding domain for only a short time after birth. In the presence of β-estradiol, the recombinase translocates to the nucleus where it can excise two essential genes that have been modified to contain the exogenous LoxP sequence. Addition of β-estradiol to the media thus renders newborn daughters inviable without affecting existing mother cells, preventing exponential growth of the cell population and nutrient depletion (FIG. 2A).\nThe High-Life method was then tested to determine if it was suitable to screening for compounds that extend replicative lifespan. […] The effect of these compounds on High-Life readings was assayed after 24 hours in culture at 10 μM concentration. As a positive control, ibuprofen was used."}, "C. elegans": {"test_system": "C. elegans", "assay": "Roundworm (C. elegans) lifespan extension", "type": "in vivo, Caenorhabditis elegans", "conditions": "10 μM in NGM plates, treated for duration of lifespan, vs control", "description": "Synchronized animals were obtained using the egg-laying method, allowing young […] eggs for 4 hours on bacteria-seeded plates. For each treatment group, 120 synchronized day-1 adults were used. All experiments were carried out at 20° C. Treatment groups were blinded. Nematode growth media (NGM) plates were made for each treatment group: Negative control (DMSO), Mycophenolic Acid (10 μM in DMSO), and Terreic Acid (10 μM in DMSO). The compounds were added to NGM media before pouring the plates. The plates were then dried overnight before moving them to 4° C. to prevent degradation of the compounds. Plates were seeded with 100 μL of 10× concentrated OP50 E. coli, and dried overnight at room temperature. Plates were UV treated with a UVP CL-1000 Ultraviolet Crosslinker, run twice on the energy setting ‘9999’ for about 5 minutes each run. Worms were transferred to new plates every 2-4 days. Viability was scored every day, with death determined by lack of response to a platinum wire. Missing worms, or those that died due to internal hatching were censored."}}, "note": "Entries after “also recorded” stand apart in the source; their conditions may differ. Residues, ends and D or L forms follow the SMILES beside them. *: point of attachment. Cbz = O=C(OCc1ccccc1)*", "data": [{"smiles": "Nc1nc2nc[nH]c2c(=O)[nH]1", "note": "[guanine]", "values": [{"measurement": "reversal of lifespan extension conferred by SIR2 overexpression (LPT step 2)", "setting": "S. cerevisiae; SIR2 overexpression, guanine as epistatic agent", "result": "did not reverse the lifespan extension"}, {"measurement": "suppression of lifespan extension in ΔHXK2 strain (LPT step 2)", "setting": "S. cerevisiae; ΔHXK2 strain, guanine as epistatic agent", "result": "did not suppress lifespan extension"}, {"measurement": "suppression of lifespan extension in ΔTOR1 strain (LPT step 2)", "setting": "S. cerevisiae; ΔTOR1 strain, guanine as epistatic agent", "result": "did not suppress lifespan extension"}, {"measurement": "suppression of lifespan extension from UBR2 deletion (LPT step 2)", "setting": "S. cerevisiae; ΔUBR2 strain, guanine supplementation", "result": "partially suppressed lifespan extension"}, {"measurement": "proteasome activity in ΔUBR2 cells", "setting": "proteasome; ΔUBR2 cells, presence vs absence of guanine", "result": "did not alter proteasome activity"}]}, {"smiles": "CC1=C(O)C(=O)[C@@H]2O[C@@H]2C1=O", "note": "[terreic acid]", "values": [{"measurement": "average High-Life readings (progenitor fraction viable vs CF405M intensity) relative to controls", "setting": "Saccharomyces cerevisiae", "result": "at least slightly above controls"}, {"measurement": "extension of mean RLS", "setting": "S. cerevisiae; 10 μM compound, wild-type haploid cells, Replicator device", "result": 15, "unit": "%"}, {"measurement": "lifespan of C. elegans", "setting": "C. elegans", "result": "measurable extension of lifespan; also recorded: statistically significant lifespan extension"}]}, {"smiles": "CC(C)C[C@@H](C=O)NC(=O)[C@H](CC(C)C)NC(=O)[C@H](CC(C)C)NC(=O)OCc1ccccc1", "note": "[MG-132] (Cbz-Leu-Leu-Leu-aldehyde)", "values": [{"measurement": "rate of fluorescence increase in proteasome assay (negative control)", "setting": "proteasome; 50 μM MG132", "result": "low rate of fluorescence increase"}]}]}
